Read-outs that look alike come from different tables or passages of the source.
Assays:
[1] = target: T1, hGALR-1 contained in membranes from human Bowes melanoma cells (Homo sapiens, UniProt P47211); experiment: Human Galanin-1 Receptor Binding Assay (SPA, 125I human galanin); details: inhibition of 125I human galanin binding
T1 construct: hGALR-1 that is contained in membranes from human Bowes melanoma cells; endogenous in cells; host or cells: human Bowes melanoma cells (membranes)
T1 sequence (P47211 1-349): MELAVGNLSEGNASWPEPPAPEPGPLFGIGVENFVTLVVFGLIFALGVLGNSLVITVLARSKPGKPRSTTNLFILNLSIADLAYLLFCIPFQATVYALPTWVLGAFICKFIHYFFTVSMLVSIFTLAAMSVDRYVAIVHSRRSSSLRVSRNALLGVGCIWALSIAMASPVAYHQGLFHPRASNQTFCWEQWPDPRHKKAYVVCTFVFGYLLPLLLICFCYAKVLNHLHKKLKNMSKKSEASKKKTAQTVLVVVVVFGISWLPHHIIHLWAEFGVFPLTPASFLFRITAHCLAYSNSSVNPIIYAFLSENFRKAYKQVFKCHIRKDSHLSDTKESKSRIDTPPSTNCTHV
Experimental: Human Galanin-1 Receptor Binding Assay
This assay determines the concentration (IC50) of a test compound which prevents 50% of galanin from binding to the hGALR-1 that is contained in membranes from human Bowes melanoma cells bound to wheat germ agglutinin conjugated Scintillation Proximity Assay (SPA) beads. The IC50 value is obtained by measuring the effect of half log increment dilutions of the test compound in duplicate using a 96-well plate (eight-rows, 12-columns).
The SPA beads (500 mg) were dissolved in 12.5 mL of assay buffer composed of 20 mM DMSO-HEPES (pH 7.4), 0.1% bovine serum albumin, 2 mM MgCl2, 2 mM CaCl2, and protease inhibitors. Enough of this suspension for five plates (25 μL×5×96 wells=12000 μL) was dispensed into a 50 mL sterile Falcon tube. The amount of membranes required for five plates was then added (50 μg×5×96 wells), followed by 32.5 mL of 30% DMSO-HEPES buffer. The mixture was placed on a rotator and agitated for 0.5 hours and the non-specific binding sites on the beads were blocked by the addition of 5% [final] fetal bovine serum. Each well of the 96-well plate received 100 μL of this mixture.
To the control column (column 12) rows A and B was added 3.75 μL of a 300 μM solution of galantide in 30% DMSO-HEPES buffer, to rows C and D was added 3.75 μL of 30% DMSO-HEPES buffer and to rows E and F was added 3.75 μL of a 300 μM solution of galanin in 30% DMSO-HEPES buffer. In columns 1 through 11 were added solutions of the test compound in 30% DMSO-HEPES buffer starting at 30 μM and decreasing in concentration in half-log dilutions. A solution of radioactive ^125I human galanin (46.25 μL), prepared from 25 micro Curies of ^125I human galanin (2000 ci/mmol) and 500 μL of assay buffer, was added to each well. The plate was sealed with adhesive paper and incubated for 16 hr at room temperature before the quench-corrected bound radioactivity was measured in a Topcount® apparatus. For each dilution, the % inhibition of galanin binding was calculated as follows:
Total binding (T)=Mean counts/minute (cpm) in row C and D in column 12 Non-specific binding (NSB)=Mean cpm in row E and F in column 12 Total specific binding (TS)=T−NSB
net cpm in each well (N)=C−NSB
The IC50 values for each compound were calculated from the non-linear regression curve of the data using Prism® graphics software.

Rat Galanin-1 Receptor = target: T2, Rat Galanin-1 Receptor (Rattus norvegicus, UniProt Q62805); experiment: Rat Galanin-1 Receptor Mediated Inhibition of Acetylcholine Release from Rat Brain Cortical Slices (superfusion); details: for Acetycholine Secretion, Stimulated / Acetycholine Secretion, Stimulated (% change): K+-evoked; for Acetycholine Secretion, Stimulated (% change) / Acetycholine Secretion, Basal (% change): percent in brackets, versus control
T2 sequence (Q62805 1-346): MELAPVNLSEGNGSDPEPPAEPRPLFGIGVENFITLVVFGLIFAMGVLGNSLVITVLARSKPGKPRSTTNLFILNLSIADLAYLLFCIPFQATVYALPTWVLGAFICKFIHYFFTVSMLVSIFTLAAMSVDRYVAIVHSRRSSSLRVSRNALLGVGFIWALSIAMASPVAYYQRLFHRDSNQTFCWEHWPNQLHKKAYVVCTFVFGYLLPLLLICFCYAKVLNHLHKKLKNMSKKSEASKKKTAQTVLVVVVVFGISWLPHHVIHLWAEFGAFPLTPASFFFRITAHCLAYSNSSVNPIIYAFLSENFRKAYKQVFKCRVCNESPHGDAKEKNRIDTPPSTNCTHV
Experimental: Rat brain cerebrocortical tissues were chopped into slices of 300×300×3,000 mm using a Mcllwain tissue chopper. […] After incubation, the slices were washed three times with ice-cold physiological solution and resuspended in 6 ml of cold solution. Equal aliquots of the tissue suspension were placed in each of 6 parallel superfusion chambers (Hugo Sachs Elektronik, March-Hugstetten, Germany). A circular piece of nylon mesh (pore size 250 um) was placed just below each chamber outlet in order to prevent the loss of tissue. The chambers were perfused against gravity with oxygenated Krebs-Ringer containing 1 mM physostigmine hemisulfate at a flow rate of 1 ml/min. […] The onset of superfusion was defined as time zero (t0). Starting at 30 min after t0, 10 min fractions of the effluent were collected.
Release of [^3H]acetylcholine was induced by superfusing tissues for 30 sec with 65 mM K^+-Krebs-Ringer solution (made by isomolar replacement of NaCl with KCl). Four potassium pulses were given respectively at 40 min (S1), 70 min (S2), 100 min (S3) and 130 min (S4) after t0. […] To permit construction of concentration-effect curves, concentrations of agents were increased 10 fold between each stimulus.
Following perfusion, the tissue was homogenized in 1 ml ethanol and aliquots of superfusates (0.4 ml) and tissue homogenates (0.04 ml) were added to 5 ml of Scintsafe PlusTM 50% (Fisher Scientific, Pittsburgh, Pa.) and radioactivity counted by liquid scintillation spectrometry. The total ^3H content in this procedure consisted mainly of [^3H]acetylcholine.
Tritium (^3H) efflux into the superfusate was calculated as the fraction of tritium content in the slices or synaptosomes at the onset of the respective collection period. For calculation of the stimulated tritium overflow, the estimated basal efflux (the average of the 10 min fractions immediately before and after each stimulation) was subtracted from the total tritium efflux during the 10 min fraction which began with the 30 sec K^+ pulse. This difference was then used to calculate the percent of K^+-evoked release of acetylcholine.
In order to quantify the in vitro effect of a drug on stimulated tritium outflow, the ratio of the fraction released by a given pulse, Sn, to that evoked by S1, was determined. Data presented below are expressed as the mean fractional tritium release ±S.E.M. Statistical differences between treatments were tested by the two-tailed Student's t test or the two factor ANOVA as appropriate. Individual differences in the dose-response curve was evaluated by the Newman-Keul multiple comparison.

[2] = Table II, formula (II) compounds, read-out: hGAL IC50
[3] = 10 μM + GAL, mean fractional tritium release

SMILES | IC50 [1, 2] [µM] | Acetycholine Secretion, Stimulated (% change) (Rat Galanin-1 Receptor; 1 μM + GAL) [%] | Acetycholine Secretion, Basal (% change) (Rat Galanin-1 Receptor; 1 μM + GAL) [%] | Acetycholine Secretion, Basal (% change) (Rat Galanin-1 Receptor; 10 μM + GAL) [%] | further results
O=S1(=O)C=C(c2ccc(Br)cc2)S(=O)(=O)CC1 [Cmpd 2] |  |  |  |  | IC50 ([1]; Table I, formula (I) compounds, read-out: HGAL IC50): 1 µM
COc1cccc(C2=CS(=O)(=O)CCCS2(=O)=O)c1 [Cmpd 15] | 1.1 |  |  |  | 
O=S1(=O)C=C(c2cccc(F)c2)S(=O)(=O)CCC1 [Cmpd 16] | 1.3 | −23.9 | −38.9 | −37 | Acetycholine Secretion, Stimulated (Rat Galanin-1 Receptor; 1 μM + GAL, mean fractional tritium release): 6.31; Acetycholine Secretion, Stimulated (Rat Galanin-1 Receptor; [3]): 8.27; Acetycholine Secretion, Basal (Rat Galanin-1 Receptor; [3]): 2.28
O=S1(=O)C=C(c2ccc(I)cc2)S(=O)(=O)CCC1 [Cmpd 17] |  | −35.2 | −39.2 | −37 | Acetycholine Secretion, Stimulated (% change) (Rat Galanin-1 Receptor; 10 μM + GAL): −22.3%
O=S1(=O)C=C(c2ccc(Cl)cc2)S(=O)(=O)CCC1 [Cmpd 21] | 1.9 |  |  |  | 

Source: patent publication US6407136B1, “1,4-dithiin and 1,4-dithiepin-1,1,4,4, tetroxide derivatives useful as antagonists of the human galanin receptor” (Ortho-McNeil Pharmaceutical, Inc., priority 1999, dated 2002)
